# System: RAW264.7 macrophages
# Assay: ELISA of cytokines in cell culture media
# Assay type: cell-based, mouse
# Protocol: RANTES (RayBiotech), IL-1β and IL-6 (eBioscience, San Diego, CA, USA) concentrations in cell culture media and mouse serum were measured using ELISA kits according to the manufacturer's instructions. The plates were measured at […] using an Epoch microplate spectrophotometer (BioTek Instruments, Winooski, VT, USA). The concentrations of RANTES, IL-1β and IL-6 in the samples were determined by standard curves.
# For identifying the potential signaling pathways which regulate the secretion of IL-6 and RANTES induced by LPS stimulation, RAW264.7 macrophages were pretreated with various kinase inhibitors for 30 min and then stimulated with/without 100 ng/ml LPS for 24 h; the cell culture media was harvested for ELISA assay. […] (FIG. 6A). To investigate whether FJU-C28 could mediate the transcriptional activity of NF-κB (p65), the translocation of NF-κB p65 was examined in LPS-stimulated macrophages.
# [1] = LPS-treated macrophages, cell culture media, FIG. 4C/4D
structure (smiles),measurement,setting,value
C=CCC1CC(Sc2ccccc2)=CC(=O)N1C(=O)C=C (stereo not drawn) [FJU-C28],production of IL-1β (ELISA),[1],dramatically reduced
same,production of IL-6 (ELISA),[1],dramatically reduced
same,LPS-induced expression of RANTES (ELISA),"at 6 hours or 24 hours, FIG. 4A",dramatically suppressed
